# Results as given in PubChem BioAssay (NCI).
#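 Tested at 5 concentrations; 48 h exposure; 96-well plates; endpoints linearly interpolated, else capped at highest concentration. GI50 = concentration required for 50% inhibition of growth. TGI is the concentration that stops growth completely.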
# How the values were obtained:
# Experiment in all cases: NCI tumour cell line growth inhibition, 48 h
# U251 CNS = system: U251 CNS
# IGROV1 ovarian = system: IGROV1 ovarian
# HOP-92 NSCLC = system: HOP-92 NSCLC
# CAKI-1 renal = system: CAKI-1 renal
# UACC-257 melanoma = system: UACC-257 melanoma
# OVCAR-5 ovarian = system: OVCAR-5 ovarian
# RPMI-8226 leukemia = system: RPMI-8226 leukemia
# SK-MEL-2 melanoma = system: SK-MEL-2 melanoma
# HCC-2998 colon = system: HCC-2998 colon
# M14 melanoma = system: M14 melanoma
# A549 NSCLC = system: A549 NSCLC
# NCI-H226 lung = system: NCI-H226 lung
# KM12 colon = system: KM12 colon
# K-562 leukemia = system: K-562 leukemia
# LOX IMVI melanoma = system: LOX IMVI melanoma
# MCF7 breast = system: MCF7 breast
# BT-549 breast = system: BT-549 breast
# HCT-15 colon = system: HCT-15 colon
# NCI/ADR-RES ovarian = system: NCI/ADR-RES ovarian
# CCRF-CEM leukemia = system: CCRF-CEM leukemia
# SF-268 CNS = system: SF-268 CNS
# SNB-75 CNS = system: SNB-75 CNS
# OVCAR-3 ovarian = system: OVCAR-3 ovarian
# T-47D breast = system: T-47D breast
# SF-295 CNS = system: SF-295 CNS
# SF-539 CNS = system: SF-539 CNS
structure (smiles),measurement,setting,value
CN(C)c1nc(NCCNS(=O)(=O)c2ccc(C3=Nc4c(N)nc(N)nc4NC(c4ccc(F)cc4)C3)cc2)nc(Nc2ccc(F)cc2)n1 (stereo unspecified),GI50,U251 CNS,6.35 µM
same,TGI,U251 CNS,> 100 µM
same,GI50,IGROV1 ovarian,5.01 µM
same,TGI,IGROV1 ovarian,> 100 µM
same,GI50,HOP-92 NSCLC,3.09 µM
same,TGI,HOP-92 NSCLC,23.3 µM
same,GI50,CAKI-1 renal,6.5 µM
same,TGI,CAKI-1 renal,> 100 µM
same,GI50,UACC-257 melanoma,11.4 µM
same,TGI,UACC-257 melanoma,> 100 µM
same,GI50,OVCAR-5 ovarian,> 100 µM
same,TGI,OVCAR-5 ovarian,> 100 µM
same,GI50,RPMI-8226 leukemia,5.25 µM
same,TGI,RPMI-8226 leukemia,> 100 µM
same,GI50,SK-MEL-2 melanoma,8.17 µM
same,TGI,SK-MEL-2 melanoma,29 µM
same,GI50,HCC-2998 colon,4.22 µM
same,TGI,HCC-2998 colon,> 100 µM
same,GI50,M14 melanoma,3.84 µM
same,TGI,M14 melanoma,25.3 µM
same,GI50,A549 NSCLC,> 100 µM
same,TGI,A549 NSCLC,> 100 µM
same,GI50,NCI-H226 lung,> 100 µM
same,TGI,NCI-H226 lung,> 100 µM
same,GI50,KM12 colon,4.69 µM
same,TGI,KM12 colon,> 100 µM
same,GI50,K-562 leukemia,2.8 µM
same,TGI,K-562 leukemia,> 100 µM
same,GI50,LOX IMVI melanoma,2.62 µM
same,TGI,LOX IMVI melanoma,9.13 µM
same,GI50,MCF7 breast,3.16 µM
same,TGI,MCF7 breast,43.7 µM
same,GI50,BT-549 breast,3.26 µM
same,TGI,BT-549 breast,18.2 µM
same,GI50,HCT-15 colon,> 100 µM
same,TGI,HCT-15 colon,> 100 µM
same,GI50,NCI/ADR-RES ovarian,> 100 µM
same,TGI,NCI/ADR-RES ovarian,> 100 µM
same,GI50,CCRF-CEM leukemia,3.99 µM
same,TGI,CCRF-CEM leukemia,> 100 µM
same,GI50,SF-268 CNS,4.83 µM
same,TGI,SF-268 CNS,> 100 µM
same,GI50,SNB-75 CNS,2.53 µM
same,TGI,SNB-75 CNS,74 µM
same,GI50,OVCAR-3 ovarian,8.09 µM
same,TGI,OVCAR-3 ovarian,> 100 µM
same,GI50,T-47D breast,4.86 µM
same,TGI,T-47D breast,> 100 µM
same,GI50,SF-295 CNS,6.71 µM
same,TGI,SF-295 CNS,> 100 µM
same,GI50,SF-539 CNS,3.89 µM
